Legend:
[1] = target: Tyrosine-protein kinase Lck (Homo sapiens, UniProt P06239); test: Inhibition of Lck autophosphorylation using [33P]ATP by scintillation counting
[2] = target: T1, Tyrosine-protein kinase TXK (Homo sapiens, UniProt P42681); test: Inhibition of Txk autophosphorylation using [33P]ATP by scintillation counting
T1 sequence (P42681 whole entry): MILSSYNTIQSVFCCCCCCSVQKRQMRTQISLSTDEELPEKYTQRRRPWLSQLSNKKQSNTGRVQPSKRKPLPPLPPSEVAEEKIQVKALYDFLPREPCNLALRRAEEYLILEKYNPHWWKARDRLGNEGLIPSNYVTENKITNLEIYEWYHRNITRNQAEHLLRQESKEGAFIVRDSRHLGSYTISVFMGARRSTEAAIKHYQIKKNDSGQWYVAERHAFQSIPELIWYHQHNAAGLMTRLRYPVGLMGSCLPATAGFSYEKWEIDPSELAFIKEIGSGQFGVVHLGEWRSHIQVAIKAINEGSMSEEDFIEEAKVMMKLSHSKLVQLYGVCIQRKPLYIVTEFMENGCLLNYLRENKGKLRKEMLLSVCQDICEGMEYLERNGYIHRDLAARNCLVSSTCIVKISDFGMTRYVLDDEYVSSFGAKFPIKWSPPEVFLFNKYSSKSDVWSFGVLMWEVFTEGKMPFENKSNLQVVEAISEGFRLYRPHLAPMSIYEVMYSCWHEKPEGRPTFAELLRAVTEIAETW

[3] = target: Tyrosine-protein kinase SYK (Homo sapiens, UniProt P43405); test: Inhibition of recombinant N-terminus His6 tagged Syk (343 to 635) autophosphorylation expressed in insect Sf9 cells using [33P]ATP by scintillation counting
[4] = target: T2, Tyrosine-protein kinase ITK/TSK (Homo sapiens, UniProt Q08881); test: Inhibition of recombinant N-terminus His6 tagged Itk (357-620) autophosphorylation expressed in insect Sf9 cells using [33P]ATP by scintillation counting
T2 sequence (Q08881 whole entry): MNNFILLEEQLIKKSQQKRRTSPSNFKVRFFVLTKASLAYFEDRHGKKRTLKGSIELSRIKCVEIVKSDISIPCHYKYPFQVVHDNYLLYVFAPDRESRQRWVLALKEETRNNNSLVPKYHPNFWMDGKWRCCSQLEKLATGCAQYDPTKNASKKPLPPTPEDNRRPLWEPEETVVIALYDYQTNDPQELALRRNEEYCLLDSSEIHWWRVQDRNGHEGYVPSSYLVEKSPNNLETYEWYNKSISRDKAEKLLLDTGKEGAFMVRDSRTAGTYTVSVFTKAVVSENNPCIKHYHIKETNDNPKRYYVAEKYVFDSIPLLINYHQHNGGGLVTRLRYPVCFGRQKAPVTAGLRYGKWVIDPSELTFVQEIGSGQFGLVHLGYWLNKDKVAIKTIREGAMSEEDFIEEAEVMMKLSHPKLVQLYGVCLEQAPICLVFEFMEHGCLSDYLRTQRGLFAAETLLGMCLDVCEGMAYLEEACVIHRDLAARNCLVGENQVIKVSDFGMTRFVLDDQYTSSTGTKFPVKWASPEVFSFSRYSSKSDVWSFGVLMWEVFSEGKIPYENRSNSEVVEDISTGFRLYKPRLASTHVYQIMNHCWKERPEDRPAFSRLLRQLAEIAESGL

Chain of Tyrosine-protein kinase Lck (P06239 whole entry): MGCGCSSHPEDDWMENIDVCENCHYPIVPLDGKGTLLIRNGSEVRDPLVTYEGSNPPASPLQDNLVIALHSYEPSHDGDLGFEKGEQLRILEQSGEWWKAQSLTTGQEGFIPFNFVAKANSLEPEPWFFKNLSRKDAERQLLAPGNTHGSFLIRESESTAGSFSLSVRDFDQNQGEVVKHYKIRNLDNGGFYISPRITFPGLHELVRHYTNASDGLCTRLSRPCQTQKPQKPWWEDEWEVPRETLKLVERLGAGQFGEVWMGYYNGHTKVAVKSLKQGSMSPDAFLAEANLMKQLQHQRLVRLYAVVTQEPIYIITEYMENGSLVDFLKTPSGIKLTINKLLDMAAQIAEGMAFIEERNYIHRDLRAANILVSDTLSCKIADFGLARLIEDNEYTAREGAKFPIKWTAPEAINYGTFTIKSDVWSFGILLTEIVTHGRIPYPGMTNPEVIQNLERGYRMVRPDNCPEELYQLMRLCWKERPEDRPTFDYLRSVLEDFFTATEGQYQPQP

| IC50 [1] | IC50 [2] | IC50 [3] | IC50 [4] | Structure (SMILES) |
| --- | --- | --- | --- | --- |
| 3.18 µM | 0.241 µM | 0.939 µM |  | CCC(O)(CC)c1ccc2c(-c3ccc(OC)cc3)c(-c3n[nH]c4ccsc34)[nH]c2c1 |
| 1.1 µM | 0.0665 µM | 0.186 µM |  | CCC(O)(CC)c1ccc2cc(-c3n[nH]c4ccsc34)[nH]c2c1 |

Further lines, the compound ahead of its results:

| Structure (SMILES) | IC50 [1] | IC50 [2] | IC50 [3] | IC50 [4] |
| --- | --- | --- | --- | --- |
| CCC(O)(CC)c1ccc2cc(-c3n[nH]c4cc(C(F)F)sc34)[nH]c2c1 | 0.0392 µM | 0.0775 µM |  |  |
| CCC(O)(CC)c1ccc2cc(-c3n[nH]c4cc(-c5ccccc5)sc34)[nH]c2c1 | 0.203 µM | 0.441 µM | 2.47 µM |  |
| CCC(O)(CC)c1cc(OCCN2CCOCC2)c2cc(-c3n[nH]c4ccsc34)[nH]c2c1 | 0.162 µM | 0.0557 µM | 0.287 µM |  |
| Oc1ccc2nc(-c3n[nH]c4ccccc34)[nH]c2c1 |  |  |  | 0.2 µM |
| CC(C)(O)c1ccc2cc(-c3n[nH]c4ccsc34)[nH]c2c1 | 0.0639 µM | 0.0738 µM |  | 0.0019 µM |

From ChEMBL document CHEMBL2016436, “X-ray crystallographic structure-based design of selective thienopyrazole inhibitors for interleukin-2-inducible tyrosine kinase” (Bioorg Med Chem Lett, 2012)
